ChEMBL document CHEMBL1201862, “PubChem BioAssay data set” (2004)
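Five compound concentrations were applied to cells in 96-well plates for 48 hours; endpoints were derived by simple linear interpolation of the resulting dose-response curve. GI50 is the concentration that inhibits growth by half.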 Active and inactive are the calls of the source. Rule as the data show it: active = GI50 up to about 1.1 µM and inactive = higher.

What was measured:
Test in all cases: NCI tumour cell line growth inhibition, 48 h
SK-OV-3 = tested on: SK-OV-3
SN12C = tested on: SN12C
DU-145 = tested on: DU-145
NCI-H23 = tested on: NCI-H23
SNB-75 = tested on: SNB-75
MCF7 = tested on: MCF7
HCT-15 = tested on: HCT-15
SK-MEL-5 = tested on: SK-MEL-5
IGROV-1 = tested on: IGROV-1
HOP-62 = tested on: HOP-62
HT-29 = tested on: HT-29
NCI-H460 = tested on: NCI-H460
SF-295 = tested on: SF-295
EKVX = tested on: EKVX
U-251 = tested on: U-251
BT-549 = tested on: BT-549
K562 = tested on: K562
Malme-3M = tested on: Malme-3M
SF-539 = tested on: SF-539
SF-268 = tested on: SF-268
OVCAR-3 = tested on: OVCAR-3
HL-60 = tested on: HL-60
KM12 = tested on: KM12
RPMI-8226 = tested on: RPMI-8226
MDA-MB-435 = tested on: MDA-MB-435
UO-31 = tested on: UO-31
PC-3 = tested on: PC-3
M14 = tested on: M14
OVCAR-8 = tested on: OVCAR-8
MDA-N = tested on: MDA-N
UACC-257 = tested on: UACC-257
ACHN = tested on: ACHN
Hs-578T = tested on: Hs-578T
NCI-H226 = tested on: NCI-H226
HCT-116 = tested on: HCT-116
HCC 2998 = tested on: HCC 2998
UACC-62 = tested on: UACC-62
T47D = tested on: T47D
SNB-19 = tested on: SNB-19
MOLT-4 = tested on: MOLT-4
A549 = tested on: A549
786-0 = tested on: 786-0
NCI/ADR-RES = tested on: NCI/ADR-RES
SW-620 = tested on: SW-620
CCRF-CEM = tested on: CCRF-CEM
SR = tested on: SR
HOP-92 = tested on: HOP-92
OVCAR-5 = tested on: OVCAR-5
MDA-MB-231 = tested on: MDA-MB-231
OVCAR-4 = tested on: OVCAR-4
TK-10 = tested on: TK-10
RXF 393 = tested on: RXF 393
COLO 205 = tested on: COLO 205
SK-MEL-2 = tested on: SK-MEL-2
SK-MEL-28 = tested on: SK-MEL-28
NCI-H522 = tested on: NCI-H522
CAKI-1 = tested on: CAKI-1
A498 = tested on: A498
LOX IMVI = tested on: LOX IMVI

## COc1cc(COC(=O)N2CSCC2C(=O)O)c([N+](=O)[O-])cc1OC (stereo not drawn)
SK-OV-3
  GI50: > 100 µM (inactive)
SN12C
  GI50: > 100 µM (inactive)
DU-145
  GI50: > 100 µM (inactive)
NCI-H23
  GI50: > 100 µM (inactive)
SNB-75
  GI50: > 100 µM (inactive)
MCF7
  GI50: > 100 µM (inactive)
HCT-15
  GI50: > 100 µM
SK-MEL-5
  GI50: > 100 µM (inactive)
IGROV-1
  GI50: > 100 µM (inactive)
HOP-62
  GI50: > 100 µM (inactive)
HT-29
  GI50: > 100 µM (inactive)
NCI-H460
  GI50: > 100 µM (inactive)
SF-295
  GI50: > 100 µM (inactive)
EKVX
  GI50: > 100 µM (inactive)
U-251
  GI50: > 100 µM (inactive)
BT-549
  GI50: > 100 µM (inactive)
K562
  GI50: > 100 µM (inactive)
Malme-3M
  GI50: > 100 µM (inactive)
SF-539
  GI50: > 100 µM (inactive)
SF-268
  GI50: > 100 µM (inactive)
OVCAR-3
  GI50: > 100 µM (inactive)
HL-60
  GI50: > 100 µM (inactive)
KM12
  GI50: > 100 µM (inactive)
RPMI-8226
  GI50: > 100 µM (inactive)
MDA-MB-435
  GI50: > 100 µM (inactive)
UO-31
  GI50: > 100 µM (inactive)
PC-3
  GI50: > 100 µM (inactive)
M14
  GI50: > 100 µM (inactive)
OVCAR-8
  GI50: > 100 µM (inactive)
MDA-N
  GI50: > 100 µM (inactive)
UACC-257
  GI50: > 100 µM (inactive)
ACHN
  GI50: > 100 µM (inactive)
Hs-578T
  GI50: > 100 µM (inactive)
NCI-H226
  GI50: > 100 µM (inactive)
HCT-116
  GI50: > 100 µM (inactive)
HCC 2998
  GI50: > 100 µM (inactive)
UACC-62
  GI50: > 100 µM (inactive)
T47D
  GI50: > 100 µM (inactive)
SNB-19
  GI50: > 100 µM (inactive)
MOLT-4
  GI50: > 100 µM (inactive)
A549
  GI50: > 100 µM (inactive)
786-0
  GI50: > 100 µM (inactive)
NCI/ADR-RES
  GI50: > 100 µM (inactive)
SW-620
  GI50: > 100 µM (inactive)
CCRF-CEM
  GI50: > 100 µM (inactive)
SR
  GI50: > 100 µM (inactive)
HOP-92
  GI50: > 100 µM (inactive)
OVCAR-5
  GI50: > 100 µM (inactive)

## COc1cc2c(cc1OC)C(c1ccccc1CCCCl)=NCC2
SK-OV-3
  GI50: > 100 µM (inactive)
SN12C
  GI50: 93.1 µM (inactive)
DU-145
  GI50: > 100 µM (inactive)
NCI-H23
  GI50: 42.5 µM (inactive)
SNB-75
  GI50: 75.3 µM (inactive)
MCF7
  GI50: 95.5 µM (inactive)
HCT-15
  GI50: > 100 µM
SK-MEL-5
  GI50: 23.3 µM (inactive)
IGROV-1
  GI50: 33.9 µM (inactive)
HOP-62
  GI50: > 100 µM (inactive)
HT-29
  GI50: 44.2 µM (inactive)
NCI-H460
  GI50: 48.6 µM (inactive)
MDA-MB-231
  GI50: > 100 µM (inactive)
SF-295
  GI50: 68.7 µM (inactive)
EKVX
  GI50: 90.2 µM (inactive)
U-251
  GI50: 8.07 µM (inactive)
OVCAR-4
  GI50: 91.4 µM (inactive)
BT-549
  GI50: 38.3 µM (inactive)
K562
  GI50: 35.8 µM (inactive)
SF-539
  GI50: > 100 µM (inactive)
SF-268
  GI50: 58.2 µM (inactive)
OVCAR-3
  GI50: > 100 µM (inactive)
HL-60
  GI50: 28.8 µM (inactive)
KM12
  GI50: 55.6 µM (inactive)
RPMI-8226
  GI50: 14.3 µM (inactive)
MDA-MB-435
  GI50: 10.8 µM (inactive)
TK-10
  GI50: > 100 µM (inactive)
UO-31
  GI50: 85.9 µM (inactive)
PC-3
  GI50: 49.9 µM (inactive)
M14
  GI50: > 100 µM (inactive)
OVCAR-8
  GI50: 97.5 µM (inactive)
UACC-257
  GI50: 53.1 µM (inactive)
RXF 393
  GI50: > 100 µM (inactive)
ACHN
  GI50: > 100 µM (inactive)
Hs-578T
  GI50: 69 µM (inactive)
COLO 205
  GI50: 40 µM (inactive)
NCI-H226
  GI50: 80.4 µM (inactive)
HCT-116
  GI50: 45.9 µM (inactive)
HCC 2998
  GI50: 46.9 µM (inactive)
UACC-62
  GI50: 40.9 µM (inactive)
T47D
  GI50: 42.8 µM (inactive)
SNB-19
  GI50: > 100 µM (inactive)
SK-MEL-2
  GI50: > 100 µM (inactive)
SK-MEL-28
  GI50: 19.1 µM (inactive)
MOLT-4
  GI50: 80.4 µM (inactive)
A549
  GI50: > 100 µM (inactive)
NCI-H522
  GI50: 20.8 µM (inactive)
786-0
  GI50: > 100 µM (inactive)
NCI/ADR-RES
  GI50: > 100 µM (inactive)
CAKI-1
  GI50: > 100 µM (inactive)
SW-620
  GI50: 25.6 µM (inactive)
CCRF-CEM
  GI50: > 100 µM (inactive)
HOP-92
  GI50: 39.1 µM (inactive)
A498
  GI50: > 100 µM (inactive)
OVCAR-5
  GI50: > 100 µM (inactive)

## COc1ccc(C2C=C(c3ccc4c(c3)OCO4)Oc3c2c(=O)oc2ccccc32)cc1OC (stereo not drawn)
SK-OV-3
  GI50: 0.372 µM (active)
SN12C
  GI50: 1.36 µM (inactive)
DU-145
  GI50: 0.417 µM (active)
NCI-H23
  GI50: 0.446 µM (active)
SNB-75
  GI50: 0.344 µM (active)
MCF7
  GI50: 0.434 µM (active)
HCT-15
  GI50: 0.415 µM
SK-MEL-5
  GI50: 0.324 µM (active)
IGROV-1
  GI50: 0.634 µM (active)
HOP-62
  GI50: > 100 µM (inactive)
HT-29
  GI50: 0.402 µM (active)
NCI-H460
  GI50: 0.406 µM (active)
MDA-MB-231
  GI50: 1.36 µM (inactive)
SF-295
  GI50: 0.279 µM (active)
EKVX
  GI50: 16.5 µM (inactive)
U-251
  GI50: 0.413 µM (active)
OVCAR-4
  GI50: > 100 µM (inactive)
BT-549
  GI50: 3.18 µM (inactive)
K562
  GI50: 0.299 µM (active)
Malme-3M
  GI50: 0.366 µM (active)
SF-539
  GI50: 0.308 µM (active)
SF-268
  GI50: 0.713 µM (active)
OVCAR-3
  GI50: 0.475 µM (active)
HL-60
  GI50: 0.248 µM (active)
KM12
  GI50: 0.443 µM (active)
RPMI-8226
  GI50: 0.254 µM (active)
MDA-MB-435
  GI50: 0.152 µM (active)
UO-31
  GI50: 0.527 µM (active)
PC-3
  GI50: 0.429 µM (active)
M14
  GI50: 0.502 µM (active)
OVCAR-8
  GI50: 0.839 µM (active)
MDA-N
  GI50: 0.15 µM (active)
RXF 393
  GI50: 0.252 µM (active)
ACHN
  GI50: 0.627 µM (active)
Hs-578T
  GI50: 0.513 µM (active)
COLO 205
  GI50: 0.361 µM (active)
NCI-H226
  GI50: 0.258 µM (active)
HCT-116
  GI50: 0.482 µM (active)
HCC 2998
  GI50: 0.506 µM (active)
UACC-62
  GI50: 0.294 µM (active)
SNB-19
  GI50: 0.422 µM (active)
SK-MEL-28
  GI50: > 93.1 µM (inactive)
MOLT-4
  GI50: 0.968 µM (active)
A549
  GI50: 1.05 µM (active)
NCI-H522
  GI50: 0.303 µM (active)
786-0
  GI50: 0.43 µM (active)
NCI/ADR-RES
  GI50: 0.543 µM (active)
CAKI-1
  GI50: 0.425 µM (active)
SW-620
  GI50: 0.468 µM (active)
CCRF-CEM
  GI50: 0.406 µM (active)
LOX IMVI
  GI50: 0.593 µM (active)
SR
  GI50: 0.236 µM (active)
HOP-92
  GI50: 34 µM (inactive)
A498
  GI50: 0.502 µM (active)
OVCAR-5
  GI50: 0.556 µM (active)
